Data as given in patent publication US20180042827A1, “METHOD OF PROTECTING SKIN FROM ULTRAVIOLET RADIATION” (FIC BIOTECH INC., priority 2016, published 2018).
“Also recorded” adds a separate entry of the source.

Tests used:
Assay type in all cases: cell-based, human
[1] = tested on: HFF-1 cells (G6PD deficient skin fibroblast); assay: Intracellular glutathione (GSH) depletion (CMF-DA fluorescence) after UVA irradiation; conditions: 200 μM added prior to UVA irradiation (25, 50 and 100 KJ/cm^2)
Protocol: (§1) When cells were seeded in culture dish for overnight incubation, 200 μM of compound (I-1) was added to the cells for 2 hours before UVA irradiation.
(§2) Glutathione (GSH) fluorescent dye: 10 μM of 5-chloromethyl fluorescein diacetate (CMF-DA). When CMF-DA enters the cells, the trapped CMF reacts with the GSH to form a fluorescent compound which to emit fluorescent light (excitation light: 492 nm, scattered light: 517 nm).
(§3) HFF-3 and HFF-1 cells were cultivated and irradiated with various dosages of UVA (25, 50 and 100 KJ/cm^2). The culture medium was then replaced with new medium and treated with […] CMF-DA probe for 30 minutes at 37° C. in the dark. Cells were detached by trypsinization, collected by centrifugation and resuspended in PBS. The intracellular GSH contents, as reflected by the green fluorescence intensity of CMF-GSH, were then observed using laser scanning confocal microscope.

[2] = tested on: HFF-3 cells; assay: as above; conditions: 200 μM added prior to UVA irradiation (25, 50 and 100 KJ/cm^2)
Protocol: as §1, §2, §3

[3] = tested on: HFF-1 cells (G6PD deficient skin fibroblast); assay: TUNEL analysis of apoptotic cell death after UVA irradiation; conditions: 200 μM added prior to UVA (50 KJ/cm^2), UVA alone ca 80%
Protocol: as §1
(§4) Apoptotic cell death was assayed by using an Apo-BrdU in situ DNA fragmentation assay kit. This kit measures the fragmented DNA of apoptotic cells by catalytically incorporating fluorescein-12-dUTP at 3′-OH DNA ends using the terminal deoxynucleotidyl transferase enzyme. The fluorescein-12-dUTP-labeled DNA can then be visualized by confocal scanning microscope and quantified by using software.

[4] = tested on: HFF-3 cells; assay: as above; conditions: 200 μM added prior to UVA (50 KJ/cm^2), UVA alone ca 40%
Protocol: as §1, §4

[5] = tested on: HFF3 cells; assay: Intracellular lipid peroxidation (C11-BODIPY 581/591 fluorescence) after UVA irradiation; conditions: pretreated, 50 KJ/m^2 UVA, versus only UVA-treated cells
Protocol: as §1
(§5) When the ROS attacks the C11-BODIPY^581/591 on the cell membrane, it will emit fluorescent light (excitation light: 488 nm, scattered light: 510-665 nm).
(§6) After treating 10 μM C11-BODIPY^581/591 for 30 minutes at 37° C., the cells were washed with HEPES buffer (4-(2-hydroxyerhyl)-piperazine-1-erhanesulfonic acid, HEPES) and were observed by using the laser scanning confocal microscope.

[6] = tested on: HFF1 cells (G6PD deficient skin fibroblast); assay: as above; conditions: pretreated, 50 KJ/m^2 UVA, versus only UVA-treated cells
Protocol: as §1, §5, §6

[7] = tested on: HFF-1 cells (G6PD deficient skin fibroblast); assay: Intracellular ROS detection (DCF-DA fluorescence) after UVA irradiation; conditions: 200 μM added prior to UVA irradiation (25, 50 and 100 KJ/cm^2)
Protocol: as §1
(§7) Reactive oxygen species (ROS) fluorescent dye: when 10 μM of 2′,7′-dichlorodihydrofluorescindiacetate (DCF-DA) enters the cells, DCF trapped is oxidized by the ROS and emits fluorescent light (excitation light: 488 nm, scattered light: 525 nm).
(§8) HFF-3 and HFF-1 cells were cultivated and irradiated with various dosages of UVA (25, 50 and 100 KJ/cm^2). The culture medium was then replaced with new medium and treated with 10 μM of DCF-DA probe for 30 minutes at 37° C. in the dark. Cells were detached by trypsinization, collected by centrifugation and resuspended in PBS. The intracellular ROS, as reflected by the DCF green fluorescence, were then observed using laser scanning confocal microscope.

[8] = tested on: HFF-3 cells; assay: as above; conditions: 200 μM added prior to UVA irradiation (25, 50 and 100 KJ/cm^2)
Protocol: as §1, §7, §8

[9] = tested on: HFF-1 cells (G6PD deficient skin fibroblast); assay: Calcium detection of cytoplasm and mitochondria (Fluo-4 / Rhod-2) after UVA irradiation; conditions: 200 μM added prior to UVA (50 KJ/cm^2)
Protocol: as §1
(§9) Calcium mobilization detection dye: 1.5 μM of RHOD-2/AM (rhod-2) is a cell-permeable fluorescent probe for measuring calcium (Ca^2+) in mitochondria (excitation light: 543 nm, scattered light: 581 nm), and 2 μM of FLUO-4/AM (fluo-4) is a cell-permeable fluorescent probe for measuring calcium (Ca^2+) in cytoplasm (excitation light: 488 nm, scattered light: 516 nm).
(§10) HFF-3 and HFF-1 cells were cultivated and irradiated with UVA (50KJ/cm^2). The culture medium was then replaced with new medium and treated with 2 μM Flou-4 and 1.5 μM of Rhod-2 (for the detection of mitochondrial calcium) for 30 minutes at 37° C. in the dark. Rhod-2 is a cationic rhodamine-based indicator probe and it can accumulate preferentially in potential-driven uptake in mitochondria. The resting mitochondrial calcium concentration is generally in the range of 100-150 nM. At this level of calcium, the brownish red fluorescence of Rhod-2 is minimal. However, when large excess of calcium ions are uptaken by the mitochondria, concentration-dependent increases in the intensities of Rhod-2 fluorescence will occur. The phenomenon is a testimony of mitochondrial calcium overload.

[10] = tested on: HFF-3 cells; assay: as above; conditions: 200 μM added prior to UVA (50 KJ/cm^2)
Protocol: as §1, §9, §10

## COC(=O)c1cc(O)c(O)c(O)c1 [compound (I-1), methyl gallate]
[1]
  intracellular GSH depletion (green fluorescence of CMF-GSH): nearly complete protection of GSH depletion; also recorded: nearly complete recovery of green fluorescence
[2]
  intracellular GSH depletion (green fluorescence of CMF-GSH): nearly complete protection of GSH depletion; also recorded: nearly complete recovery of green fluorescence
[3]
  TUNEL-positive cell population: 18%
[4]
  TUNEL-positive cell population: 8%
[5]
  intracellular lipid peroxidation (green fluorescent intensity of C11-BODIPY 581/591): weaker than that of the only UVA-treated cells; also recorded: significant decline of green fluorescence
[6]
  intracellular lipid peroxidation (green fluorescent intensity of C11-BODIPY 581/591): weaker than that of the only UVA-treated cells; also recorded: significant decline of green fluorescence
[7]
  production of intracellular ROS (DCF fluorescence): almost completely suppressed; also recorded: nearly complete suppression of ROS production
[8]
  production of intracellular ROS (DCF fluorescence): almost completely suppressed
[9]
  mitochondrial calcium overload (brownish red fluorescence of Rhod-2): drastic decrease in brownish red fluorescence intensity; also recorded: could effectively be suppressed
[10]
  mitochondrial calcium overload (brownish red fluorescence of Rhod-2): can prevent calcium overload in mitochondria; also recorded: could effectively be suppressed
